Measured values: US9334267B2, “RAF inhibitor compounds” (Deciphera Pharmaceuticals, LLC, priority 2012, dated 2016)

Experiments:
human wild type C-Raf = target: T1, human wild type C-Raf (Homo sapiens, UniProt P04049); assay: Enzymatic assay of C-Raf kinase activity (Raf/MEK1 ATPase, coupled PK/LDH, A340); type: biochemical; settings: read-out: Enzyme IC50, nM C-Raf
T1 construct: made in house
Method: Test compounds are evaluated for their inhibitory activities against one or more of human wild type B-Raf, human wild type C-Raf, human B-Raf V600E, human B-Raf V600E+T529I or human B-Raf V600E+G468A. T529I is a threonine to isoleucine B-Raf gatekeeper mutation and G468A is a B-Raf secondary mutation at G1403C in exon 11. The enzymatic assays of B-Raf, C-Raf and B-Raf mutations evaluate a property of Raf and MEK1 complex, which in the presence of ATP, catalyzes an enhanced ATP hydrolysis (Rominger, et al, Arch. Biochem. Biophys. 2007, 464: 130-137; US Patent Publication No. 2006/0211073). The ADP formed is monitored by the well-known coupled PK/LDH (pyruvate kinase/lactate dehydrogenase) system in the form of NADH oxidation, which can be monitored and detected spectrophotometrically by absorbance at 340 nm (A340; for principal of the method see Schindler et al, Science, 2000, 289: 1938-1942). Raf activated MEK1 ATPase activity is a property shared by all forms of Raf proteins.
Test compounds are evaluated for their inhibitory activities against one or more of wild type B-Raf, wild type C-Raf, B-Raf V600E, B-Raf V600E+T529I and B-Raf V600E+G468A. T529I is a B-Raf gatekeeper mutation and G468A is a B-Raf secondary mutation. The enzymatic assays of B-Raf, C-Raf and B-Raf mutations evaluate a property of Raf and MEK1 complex, which in the presence of ATP, catalyzes an enhanced ATP hydrolysis (Rominger, et al, Arch. Biochem. Biophys. 2007, 464: 130-137). The ADP formed is monitored by the well-known coupled PK/LDH (pyruvate kinase/lactate dehydrogenase) system in the form of NADH oxidation, which can be monitored and detected by absorbance at 340 nm (A340; for principal of the method see Schindler et al, Science, 2000, 289: 1938-1942). Raf activated MEK1 ATPase activity is a property shared by all forms of Raf proteins. In the B-Raf wild type enzymatic assay, the reaction mixture contains 1.2 nM B-Raf, 30 nM MEK1, 1000 uM ATP, 3.5 units (per 100 ul) of PK, 5 units (per 100 ul) of LDH, 1 mM phosphoenol pyruvate (PEP), and 280 uM of NADH. In the C-Raf assay, the reaction mixture contains 0.6 nM C-Raf, 26 nM MEK1, 2000 uM ATP, and the same amount of PK, LDH, PEP and NADH as above. In the B-Raf V600E assay, the reaction mixture contains […] B-Raf V600E, 26 nM MEK1, 200 uM ATP and the same amount of PK, LDH, PEP and NADH as above. In the B-RafV600E+T529I assay, the reaction mixture contains 6.2 nM B-Raf V600E+T529I, 30 nM MEK1, 200 uM ATP and the same amount of PK, LDH, PEP and NADH as above. In the B-Raf V600E+G468A assay, the reaction mixture contains 3.5 nM B-Raf, 30 nM MEK1, 200 uM ATP and the same amount of PK, LDH, PEP and NADH as above. All assays are started by mixing the above mixture with test compound and monitoring at A340 continuously for approximately 5 hr. […] In the aforementioned assays, the enzyme constructs can be screened prior to or after cleavage of the N-terminal purification tag.

[1] = test system: phospho-ERK in A375 (BRAF V600E) xenograft; assay: A375 mouse xenograft pharmacodynamic assay (tumor phospho-ERK by ELISA); type: in vivo; settings: A375 xenografts in nude female mice, 20 mg/kg oral (gavage), vs vehicle
Method: To evaluate the in vivo pharmacodynamic (PD) effects of compounds of Formula I, an A375 (BRAF V600E) xenograft model is employed. Briefly, 10×10^6 A375 tumor cells (ATCC) are prepared in a 1:1 matrigel mix (0.2 mL total volume) and implanted by subcutaneous injection in hind leg of nude female mice. A total of 4 mice each for each dosing group are employed. Treatment is initiated with oral administration (gavage) of test compound or vehicle (20% captisol, 25 mM phosphate, pH2.0) in 0.2 mL volume when average tumor size reaches approximately 300 mg. After a fixed time interval, the tumors are harvested and the phospho-ERK levels are measured by ELISA (Enzyme-linked immunosorbent assay). Treated groups are compared to the vehicle control group to calculate % inhibition.

A375res cells [2] = test system: A375res cells
A375res cells [3] = assay: Proliferation assay in vemurafenib-resistant melanoma cells A375res; settings: Homo sapiens, 72 h, read-out: absolute IC50 values

T1 sequence (P04049 whole entry): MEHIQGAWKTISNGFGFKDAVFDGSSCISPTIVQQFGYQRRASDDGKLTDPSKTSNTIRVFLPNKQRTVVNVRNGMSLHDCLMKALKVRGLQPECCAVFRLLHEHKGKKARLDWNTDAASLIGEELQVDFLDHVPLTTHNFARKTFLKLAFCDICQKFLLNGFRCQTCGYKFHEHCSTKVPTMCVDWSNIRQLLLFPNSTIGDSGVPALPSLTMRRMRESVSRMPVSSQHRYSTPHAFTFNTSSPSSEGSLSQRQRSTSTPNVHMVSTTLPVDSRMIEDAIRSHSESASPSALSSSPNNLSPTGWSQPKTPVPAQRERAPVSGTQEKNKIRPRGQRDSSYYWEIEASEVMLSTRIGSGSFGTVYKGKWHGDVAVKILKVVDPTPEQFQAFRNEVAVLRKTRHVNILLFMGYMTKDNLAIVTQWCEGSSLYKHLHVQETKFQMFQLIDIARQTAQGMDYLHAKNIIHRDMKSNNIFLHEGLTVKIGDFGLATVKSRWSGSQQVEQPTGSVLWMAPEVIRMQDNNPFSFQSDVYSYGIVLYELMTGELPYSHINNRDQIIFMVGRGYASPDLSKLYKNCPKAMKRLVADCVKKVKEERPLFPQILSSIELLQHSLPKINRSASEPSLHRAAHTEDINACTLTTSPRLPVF

SMILES	IC50 (human wild type C-Raf) [nM]	Measured pERK inhibition 2 h post dose [1] [% inhibition]	IC50 shift A375 to A375res (A375res cells [2])	IC50 (A375res cells [3]) [nM]
CNc1ncc2cc(-c3cc(NC(=O)NCCC(C)(C)C)c(F)cc3F)c(C)nc2n1 [Example 1, 1-(2,4-Difluoro-5-(7-methyl-2-(methylamino)pyrido[2,3-d]pyrimidin-6-yl)phenyl)-3-(3,3-dimethylbutyl)urea]	< 150	54	–	–
CNc1ncc2cc(-c3ccc(F)c(NC(=O)NCCC(C)(C)C)c3)c(C)nc2n1 [Example 2, 1-(3,3-Dimethylbutyl)-3-(2-fluoro-5-(7-methyl-2-(methylamino)pyrido[2,3-d]pyrimidin-6-yl)phenyl)urea]	< 150	38	–	–
CNc1ncc2cc(-c3cc(NC(=O)NCCC(C)(C)F)c(F)cc3C)c(C)nc2n1 [Example 4, 1-(3-Fluoro-3-methylbutyl)-3-(2-fluoro-4-methyl-5-(7-methyl-2-(methylamino)pyrido[2,3-d]pyrimidin-6-yl)phenyl)urea]	< 150	84	0.6-1.9 fold	15 to 1100
COCCNc1ncc2cc(-c3cc(NC(=O)NCCC(C)(C)C)c(F)cc3C)c(C)nc2n1 [Example 5, 1-(3,3-Dimethylbutyl)-3-(2-fluoro-5-(2-((2-methoxyethyl)amino)-7-methylpyrido[2,3-d]pyrimidin-6-yl)-4-methylphenyl)urea]	< 150	77	–	–
CNc1ncc2cc(-c3cc(NC(=O)NCCC(C)(C)C(F)(F)F)c(F)cc3C)c(C)nc2n1 [Example 27, 1-(2-Fluoro-4-methyl-5-(7-methyl-2-(methylamino)pyrido[2,3-d]pyrimidin-6-yl)phenyl)-3-(4,4,4-trifluoro-3,3-dimethylbutyl)urea]	< 150	–	0.6-1.9 fold	15 to 1100
Cc1cc(F)c(NC(=O)NCCC(C)(C)F)cc1-c1cc2cnc(N)nc2nc1C [Example 28, 1-(5-(2-Amino-7-methylpyrido[2,3-d]pyrimidin-6-yl)-2-fluoro-4-methylphenyl)-3-(3-fluoro-3-methylbutyl)urea]	< 150	–	0.6-1.9 fold	15 to 1100
CNc1ncc2cc(-c3cc(NC(=O)NCCC4(C(F)(F)F)CC4)c(F)cc3C)c(C)nc2n1 [Example 30, 1-(2-Fluoro-4-methyl-5-(7-methyl-2-(methylamino)pyrido[2,3-d]pyrimidin-6-yl)phenyl)-3-(2-(1-(trifluoromethyl)cyclopropyl)ethyl)urea]	< 150	–	0.6-1.9 fold	15 to 1100
CNc1ncc2cc(-c3cc(NC(=O)NCCC(C)(C)F)c(F)cc3C)cnc2n1 [Example 34, 1-(3-Fluoro-3-methyl-butyl)-3-[2-fluoro-4-methyl-5-(2-methylaminopyrido[2,3-d]pyrimidin-6-yl)phenyl]urea]	< 150	72	0.6-1.9 fold	15 to 1100
